Data on eleven molecules can be found in patent US12122778B2, “Activating pyruvate kinase R” (Novo Nordisk Health Care AG, priority 2018, dated 2024).

For one assay, the target named is PKR(wt) (Homo sapiens, UniProt P30613). The assay is described as follows: Luminescence Biochemical Assay (Kinase Glo Plus), wild type PKR. The settings on record: without FBP; for activation at 1.54 µM: 1.54 μM compound, read-out: AC50 LUM KGP woFBP % Fold@1.54 μM mean; for AC50: read-out: AC50 LUM KGP woFBP AC50 μM gmean; for Emax: read-out: AC50 LUM KGP woFBP MAX % FOLD mean. A general note: Kinase-Glo reads ATP consumption through a luciferase reaction.
Sequence of PKR(wt) (P30613 whole entry): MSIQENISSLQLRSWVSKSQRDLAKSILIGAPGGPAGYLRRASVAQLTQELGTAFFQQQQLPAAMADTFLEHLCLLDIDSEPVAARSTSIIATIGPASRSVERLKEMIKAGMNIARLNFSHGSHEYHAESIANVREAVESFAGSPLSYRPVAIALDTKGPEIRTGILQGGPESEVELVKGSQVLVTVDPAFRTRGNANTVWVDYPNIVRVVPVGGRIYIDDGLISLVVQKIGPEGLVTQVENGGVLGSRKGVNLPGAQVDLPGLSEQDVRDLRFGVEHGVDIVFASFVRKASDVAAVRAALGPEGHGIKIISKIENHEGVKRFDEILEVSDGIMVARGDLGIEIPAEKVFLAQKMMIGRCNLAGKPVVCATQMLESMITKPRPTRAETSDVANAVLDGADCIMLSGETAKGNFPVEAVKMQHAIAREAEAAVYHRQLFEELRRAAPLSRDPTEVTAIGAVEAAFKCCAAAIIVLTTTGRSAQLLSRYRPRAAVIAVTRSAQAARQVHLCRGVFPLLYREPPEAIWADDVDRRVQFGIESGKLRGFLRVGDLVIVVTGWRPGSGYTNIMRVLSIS

For the next assay, the target named is PKR(G332S) (Homo sapiens, UniProt P30613, G332S). The assay is described as follows: Luminescence Biochemical Assay (Kinase Glo Plus), PKR G332S mutant. The settings on record: with FBP; for activation at 1.54 µM: 1.54 μM compound, read-out: AC50 LUM KGP FBP % Fold@1.54 μM mean; for AC50: read-out: AC50 LUM KGP FBP AC50 μM gmean (column A); for Emax: read-out: AC50 LUM KGP FBP MAX % FOLD mean.
Sequence of PKR(G332S) (P30613 whole entry G332S): as the sequence (P30613 whole entry) above, with G332S counted along it

The target of the next assay is PKR(R510Q) (Homo sapiens, UniProt P30613, R510Q). The assay is described as follows: Luminescence Biochemical Assay (Kinase Glo Plus), PKR R510Q mutant. The following applies: without FBP; for activation at 1.54 µM: 1.54 μM compound, read-out: AC50 LUM KGP woFBP % Fold@1.54 μM mean; for AC50: read-out: AC50 LUM KGP woFBP AC50 μM gmean; for Emax: read-out: AC50 LUM KGP woFBP MAX % FOLD mean.
Sequence of PKR(R510Q) (P30613 whole entry R510Q): as the sequence (P30613 whole entry) above, with R510Q counted along it

Molecules are shown by their SMILES.

Broadly, the AC50 is the midpoint of the concentration-response curve, whichever way the signal moves. For the molecule `O=C(C(O)c1cccnc1)N1CC2=C(C1)CN(S(=O)(=O)c1ccc(OC(F)F)cc1)C2` (stereo not drawn) [Example 9-1, 1-(5-[[4-(Difluoromethoxy)benzene]sulfonyl]-1H,2H,3H,4H,5H,6H-pyrrolo[3,4-c]pyrrol-2-yl)-2-hydroxy-2-(pyridin-3-yl)ethan-1-one], at PKR(wt), the activation at 1.54 µM lay within 250 to 50000%, the AC50 was at most 0.1 µM and the Emax was in the range of 250 to 500%. At PKR(G332S), the activation at 1.54 µM was 75 to 250%, the AC50 is at most 0.1 µM and the Emax lay within 75 to 250%. Besides, on PKR(R510Q), the activation at 1.54 µM was in the range of 250 to 50000%, the concentration at half-maximal activity (AC50) was at most 0.1 µM and the Emax is 250 to 500%.
As for `O=C([C@H](O)c1ccccc1)N1CC2=C(C1)CN(S(=O)(=O)c1ccc(OC(F)F)cc1)C2` [Example 18-13, (2R)-1-{5-[4-(difluoromethoxy)benzenesulfonyl]-1H,2H,3H,4H,5H,6H-pyrrolo[3,4-c]pyrrol-2-yl}-2-hydroxy-2-phenylethan-1-one], on PKR(wt), the activation at 1.54 µM fell in the range of 250 to 50000%, the AC50 was at most 0.1 µM and the Emax fell in the range of 250 to 500%. At PKR(G332S), the activation at 1.54 µM lay within 75 to 250%, the AC50 was at most 0.1 µM and the Emax was in the range of 75 to 250%. On PKR(R510Q), the activation at 1.54 µM is 250 to 50000%, the AC50 was at most 0.1 µM and the Emax was 250 to 500%.
For `O=C(C1CCOCC1)N1CC2=C(C1)CN(S(=O)(=O)c1ccc3c(c1)NCCO3)C2` [Example 7-1, (5-((3,4-dihydro-2H-benzo[b][1,4]oxazin-6-yl)sulfonyl)-3,4,5,6-tetrahydropyrrolo[3,4-c]pyrrol-2(1H)-yl)(tetrahydro-2H-pyran-4-yl)methanone], at PKR(wt), the activation at 1.54 µM lay within 75 to 250%, the AC50 lay in the range of 0.1 to 1 µM and the Emax was 250 to 500%. Moreover, at PKR(G332S), the activation at 1.54 µM fell in the range of 75 to 250%, the AC50 lay within 0.1 to 1 µM and the Emax is 75 to 250%. In addition, on PKR(R510Q), the activation at 1.54 µM fell in the range of 75 to 250%, the AC50 was 1 to 40 µM and the Emax is 250 to 500%.
Take `Cc1ccc(CC(=O)N2CC3=C(C2)CN(S(=O)(=O)c2ccc(OC(F)F)cc2)C3)cn1` [Example 18-30, 1-{5-[4-(Difluoromethoxy)benzenesulfonyl]-1H,2H,3H,4H,5H,6H-pyrrolo[3,4-c]pyrrol-2-yl}-2-(6-methylpyridin-3-yl)ethan-1-one]: on PKR(wt), the activation at 1.54 µM was in the range of 250 to 50000%, the AC50 lay within 0.1 to 1 µM and the Emax was 250 to 500%. In addition, on PKR(G332S), the activation at 1.54 µM is 75 to 250%, the AC50 was at most 0.1 µM and the Emax lay within 75 to 250%. Further, at PKR(R510Q), the activation at 1.54 µM was 250 to 50000%, the AC50 was 0.1 to 1 µM and the Emax fell in the range of 250 to 500%.
For `O=C(NCc1ccc(F)cc1)N1CC2=C(C1)CN(S(=O)(=O)c1ccc3ncsc3c1)C2` [Example 21-19, 5-(1,3-Benzothiazole-6-sulfonyl)-N-[(4-fluorophenyl)methyl]-1H,2H,3H,4H,5H,6H-pyrrolo[3,4-c]pyrrole-2-carboxamide], the activation at 1.54 µM at PKR(wt), on PKR(G332S) and on PKR(R510Q) was 75 to 250% throughout. Further, the AC50 at PKR(wt), at PKR(G332S) and on PKR(R510Q) was 0.1 to 1 µM throughout. The Emax is 250 to 500% on PKR(wt), 75 to 250% on PKR(G332S) and 250 to 500% at PKR(R510Q).
`O=C([C@H](O)c1ccc2c(c1)NCCO2)N1CC2=C(C1)CN(S(=O)(=O)c1ccc(OC(F)F)cc1)C2` (single isomer, unassigned) [Example 9-4]: at PKR(wt), the activation at 1.54 µM was 75 to 250%, the AC50 is 1 to 40 µM and the Emax lay in the range of 250 to 500%. At PKR(G332S), the activation at 1.54 µM was in the range of 75 to 250%, the AC50 was 0.1 to 1 µM and the Emax fell in the range of 75 to 250%. Also, at PKR(R510Q), the activation at 1.54 µM was in the range of 75 to 250%, the AC50 was in the range of 1 to 40 µM and the Emax is 250 to 500%.
For `O=C(Cc1ccc(F)cc1F)N1CC2=C(C1)CN(S(=O)(=O)c1ccccn1)C2` [Example 18-67, 2-(2,4-Difluorophenyl)-1-[5-(pyridine-2-sulfonyl)-1H,2H,3H,4H,5H,6H-pyrrolo[3,4-c]pyrrol-2-yl]ethan-1-one], the activation at 1.54 µM on PKR(wt), on PKR(G332S) and at PKR(R510Q) was 75 to 250% throughout. Further, the results for the AC50 on PKR(wt), at PKR(G332S) and at PKR(R510Q) were 1 to 40 µM, 0.1 to 1 µM and 1 to 40 µM, respectively. Moreover, the Emax at PKR(wt) was in the range of 250 to 500%; on PKR(G332S) it was 75 to 250%; on PKR(R510Q), 250 to 500%.
For the molecule `O=C(C(F)c1ccccc1)N1CC2=C(C1)CN(S(=O)(=O)c1ccc(OC(F)F)cc1)C2` (stereo not drawn) [Example 18-24, 1-{5-[4-(Difluoromethoxy)benzenesulfonyl]-1H,2H,3H,4H,5H,6H-pyrrolo[3,4-c]pyrrol-2-yl}-2-fluoro-2-phenylethan-1-one], at PKR(wt), the activation at 1.54 µM fell in the range of 250 to 50000%, the AC50 was in the range of 0.1 to 1 µM and the Emax is 250 to 500%. Besides, at PKR(G332S), the activation at 1.54 µM was in the range of 75 to 250%, the AC50 was at most 0.1 µM and the Emax is 75 to 250%. Also, at PKR(R510Q), the activation at 1.54 µM is 250 to 50000%, the AC50 is at most 0.1 µM and the Emax is 250 to 500%.
Consider `O=C(Cn1cnnn1)N1CC2=C(C1)CN(S(=O)(=O)c1cccnc1)C2` [Example 18-70, 1-[5-(Pyridine-3-sulfonyl)-1H,2H,3H,4H,5H,6H-pyrrolo[3,4-c]pyrrol-2-yl]-2-(1H-1,2,3,4-tetrazol-1-yl)ethan-1-one], for which, on PKR(wt), the activation at 1.54 µM fell in the range of 75 to 250%, the AC50 was in the range of 1 to 40 µM and the Emax lay in the range of 75 to 250%. At PKR(G332S), the activation at 1.54 µM was 75 to 250%, the AC50 was in the range of 1 to 40 µM and the Emax is 75 to 250%. Besides, at PKR(R510Q), the activation at 1.54 µM was in the range of 75 to 250%, the AC50 fell in the range of 1 to 40 µM and the Emax was 75 to 250%.
With `N#Cc1ccccc1S(=O)(=O)N1CC2=C(CN(C(=O)[C@H](O)c3ccccc3)C2)C1` [Example 18-47, 2-({5-[(2R)-2-hydroxy-2-phenylacetyl]-1H,2H,3H,4H,5H,6H-pyrrolo[3,4-c]pyrrol-2-yl}sulfonyl)benzonitrile], on PKR(wt), the activation at 1.54 µM lay in the range of 75 to 250%, the AC50 was in the range of 0.1 to 1 µM and the Emax was 75 to 250%. On PKR(G332S), the activation at 1.54 µM fell in the range of 75 to 250%, the AC50 lay within 1 to 40 µM and the Emax was in the range of 75 to 250%. For the same molecule, at PKR(R510Q), the activation at 1.54 µM fell in the range of 75 to 250%, the AC50 was in the range of 0.1 to 1 µM and the Emax is 75 to 250%.
For the molecule `CC[C@@H](O)C(=O)N1CC2=C(C1)CN(S(=O)(=O)c1ccc3c(c1)N(C)CCO3)C2` [Example 18-76, (2R)-2-hydroxy-1-{5-[(4-methyl-3,4-dihydro-2H-1,4-benzoxazin-6-yl)sulfonyl]-1H,2H,3H,4H,5H,6H-pyrrolo[3,4-c]pyrrol-2-yl}butan-1-one], at PKR(wt), the activation at 1.54 µM fell in the range of 75 to 250%, the AC50 lay within 0.1 to 1 µM and the Emax was 75 to 250%. Moreover, on PKR(G332S), the activation at 1.54 µM fell in the range of 75 to 250%, the AC50 lay in the range of 1 to 40 µM and the Emax fell in the range of 75 to 250%. Moreover, at PKR(R510Q), the activation at 1.54 µM was 75 to 250%, the AC50 lay in the range of 1 to 40 µM and the Emax lay within 75 to 250%.
